Results on 20 compounds are retold here after patent US20050020631A1, “3-Substituted benzofurans as therapeutic agents” (priority 2003, published 2005).

The term melting point denotes the temperature of the solid-liquid transition. The IC50 is the concentration at which inhibition is half-maximal.

Tested on in one data set: not given
Assay: not given
Settings: not given
`O=C(Nc1nnn[nH]1)c1oc2ccc(Cl)cc2c1OCC1CC1` [Example 44, 5-Chloro-3-cyclopropylmethoxy-benzofuran-2-carboxylic acid (1H-tetrazol-5-yl)-amide] had a melting point of 243 to 244 °C.

The target in another data set is T1, p101/p110γ protein (PI3Kγ) (Homo sapiens, UniProt P48736).
T1 construct: HA; made in house; host or cells: Spodoptera frugiperda (Sf9) cells, baculovirus coinfection
T1 sequence (P48736 whole entry, species assumed): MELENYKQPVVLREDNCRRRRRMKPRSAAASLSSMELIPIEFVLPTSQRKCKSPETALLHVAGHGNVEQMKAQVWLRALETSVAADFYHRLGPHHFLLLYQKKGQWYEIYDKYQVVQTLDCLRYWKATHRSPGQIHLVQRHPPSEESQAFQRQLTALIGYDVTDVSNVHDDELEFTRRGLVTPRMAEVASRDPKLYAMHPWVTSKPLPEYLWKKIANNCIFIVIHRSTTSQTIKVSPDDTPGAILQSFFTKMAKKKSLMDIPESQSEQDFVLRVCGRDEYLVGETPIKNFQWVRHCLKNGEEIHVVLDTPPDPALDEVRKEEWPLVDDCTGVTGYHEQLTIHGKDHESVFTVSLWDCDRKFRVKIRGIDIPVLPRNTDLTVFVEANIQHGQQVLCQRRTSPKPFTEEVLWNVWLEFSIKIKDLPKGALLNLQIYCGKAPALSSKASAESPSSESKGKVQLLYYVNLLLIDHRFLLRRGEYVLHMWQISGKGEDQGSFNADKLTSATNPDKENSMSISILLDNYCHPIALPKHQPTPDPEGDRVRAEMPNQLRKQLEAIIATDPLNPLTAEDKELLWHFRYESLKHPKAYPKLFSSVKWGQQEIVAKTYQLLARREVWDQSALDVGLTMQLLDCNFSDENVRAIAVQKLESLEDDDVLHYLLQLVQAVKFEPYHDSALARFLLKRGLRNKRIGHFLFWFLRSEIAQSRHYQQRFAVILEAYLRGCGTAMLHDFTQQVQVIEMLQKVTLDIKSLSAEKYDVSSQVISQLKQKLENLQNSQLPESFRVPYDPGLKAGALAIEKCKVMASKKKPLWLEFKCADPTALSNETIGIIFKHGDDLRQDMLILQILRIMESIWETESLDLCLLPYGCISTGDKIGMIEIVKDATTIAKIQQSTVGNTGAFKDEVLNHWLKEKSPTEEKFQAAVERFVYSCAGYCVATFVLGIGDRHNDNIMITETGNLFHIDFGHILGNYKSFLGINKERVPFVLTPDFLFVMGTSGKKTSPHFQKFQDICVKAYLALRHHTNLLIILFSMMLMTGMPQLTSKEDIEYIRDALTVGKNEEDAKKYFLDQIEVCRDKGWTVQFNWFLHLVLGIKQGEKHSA
T1 sequence (Q8WYR1 whole entry partner, species assumed): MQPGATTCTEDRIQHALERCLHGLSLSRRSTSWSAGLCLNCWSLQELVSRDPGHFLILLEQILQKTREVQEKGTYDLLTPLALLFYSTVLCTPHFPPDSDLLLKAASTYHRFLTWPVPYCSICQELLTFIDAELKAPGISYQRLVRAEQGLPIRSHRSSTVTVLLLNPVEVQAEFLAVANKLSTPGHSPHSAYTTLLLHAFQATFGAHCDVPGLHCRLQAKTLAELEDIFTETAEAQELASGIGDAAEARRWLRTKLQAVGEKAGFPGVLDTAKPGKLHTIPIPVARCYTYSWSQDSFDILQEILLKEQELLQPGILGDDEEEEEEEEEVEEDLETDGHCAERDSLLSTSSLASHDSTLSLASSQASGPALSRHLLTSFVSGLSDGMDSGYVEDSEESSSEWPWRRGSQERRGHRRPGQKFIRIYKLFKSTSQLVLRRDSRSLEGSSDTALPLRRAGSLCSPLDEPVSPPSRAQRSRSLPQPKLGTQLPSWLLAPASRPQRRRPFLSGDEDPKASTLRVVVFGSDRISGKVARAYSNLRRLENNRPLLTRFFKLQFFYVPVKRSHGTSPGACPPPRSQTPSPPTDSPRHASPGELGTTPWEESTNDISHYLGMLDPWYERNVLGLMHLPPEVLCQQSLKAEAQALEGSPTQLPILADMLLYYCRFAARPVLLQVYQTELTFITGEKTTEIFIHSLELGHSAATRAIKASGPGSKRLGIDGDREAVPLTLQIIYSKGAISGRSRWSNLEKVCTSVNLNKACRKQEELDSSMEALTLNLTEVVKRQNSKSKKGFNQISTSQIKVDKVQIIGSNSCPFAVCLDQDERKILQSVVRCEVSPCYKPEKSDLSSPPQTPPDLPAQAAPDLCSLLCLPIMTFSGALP
Description: PI3Kγ In Vitro Kinase Assay. Conditions: purified recombinant p101/p110γ with G protein β1/γ2 subunits; 20 μM ATP, [γ-32P-ATP]; 25 μM PIP2 lipid micelles; 20 minutes at room temperature. The class given is biochemical. The protocol:
Spodtera frugiperda cells, grown in ESF921 media, were coinfected with baculovirus expressing a glu-tagged p101 and baculovirus expressing an HA-tagged p110γ, at a 3:1 ratio of p101 baculovirus to p110γ baculovirus. Sf9 cells were grown to 1×10^7 total cells/mL in 10L bioreactors and harvested 48-72 hours post infection. Samples of infected cells were then tested for expression of p101/p110γ PI3 kinase by immunoprecipitation and Western Blot analysis methods (see below). To purify PI3Kγ, 4 volumes of room temperature hypotonic lysis buffer (1 mM MgCl2, 1 mM DTT, 5 mM EGTA, 1 mM Pefabloc, 0.5 μM aprotinin, 5 μM leupeptin, 2 μM pepstatin, 5 μM E64, pH 8) per gram of cell paste, was poured onto frozen cell pellets with stirring, then lysed in a nitrogen “bomb” at 400 psi (599HC […], Parr Instrument Co, Moline, Ill.). NaCl was added to 150 mM, and sodium cholate was added to 1% and mixed for another 45 minutes. The lysates were clarified by centrifugation for 25 minutes at 14,000 rpm. The lysates were then loaded over anti-glu-linked Protein-G Sepaharose beads (Covance Research Products, Richmond, Calif.) using 20 mL resin/50 g cell paste. The column was washed with 15 volumes of wash buffer (1 mM DTT, 0.2 mM EGTA, 1 mM Pefabloc, 0.5 μM aprotinin, 5 μM leupeptin, 2 μM pepstatin, 5 μM E64, 150 mM NaCl, 1% sodium cholate, pH 8). PI3Kγ was eluted with 6 column volumes of wash buffer that contain 100 μg/mL of a peptide that competes for binding of the glu tag. The column fractions with the eluted protein (determined by taking OD280 readings) were collected and dialyzed in 0.2 mM EGTA, 1 mM DTT, 1 mM Pefabloc, 5 μM leupeptin, 0.5% sodium cholate, 150 mM NaCl, and 50% glycerol, pH 8. The fractions were stored at -80° C. until further use. Spodtera frugiperda cells were coinfected with baculovirus expressing a glu-tagged G protein β1 and baculovirus expressing a G protein […], at a 1:1 ratio of glu-tagged G protein β1 baculovirus to G protein β2 baculovirus. Sf9 cells are grown in 10 L bioreactors and harvested 48-72 hours post infection. Samples of infected cells were tested for G protein β1/β2 expression by Western Blot analysis, as described below. Cell lysates were homogenized and loaded onto a column of glu-tagged beads as in Biological Example 1 and competed off the column with a glu peptide and processed as described in Biological Example 1. The inhibitory properties of the compounds in Table 1 were assayed in an in vitro PI3K assay. In a 96-well polypropylene plate, each well was spotted with 2 μL of 50 times the desired final concentration of compound in DMSO. Purified recombinant p101/p110γ protein (0.03 μg; 2.7 nM) and G protein β1/γ2 subunits (0.09 μg; 57.7 nM) for each reaction was combined in the assay buffer (30 mM HEPES, 100 mM NaCl, 1 mM EGTA, and 1 mM DTT). ATP and [γ-^32P-ATP] (0.09 μCi) were added to this mixture so that the final ATP concentration in the reaction was 20 μM. Lipid micelles were formed by sonicating phosphatidylinositol-4,5-diphosphate (PIP2), phosphatidylethanolamine (PE), and Na-cholate in the assay buffer for 10 minutes, adding MgCl2 and incubating on ice for 20 minutes, for final concentrations of 25 μM PIP2, 300 μM PE, 0.02% Na-cholate, and 10 mM MgCl2 in the reaction. The reactions were started by adding equal volumes lipid and enzyme mixture in a total volume of 50 μL, allowed to run for 20 minutes at room temperature, and stopped with 100 μL 75 mM H3PO4. The lipid product was transferred to a glass fiber filter plate and washed with 74 mM H3PO4 several times. The presence of radioactive lipid product (PIP3) was measured by adding Wallac Optiphase mix to each well and counting in a Wallac 1450 Trilux plate reader (PerkinElmer Life Sciences Inc., Boston, Mass. 02118). The IC50 for each compound tested is reported in μM in Table 1: […]
Consider `CC(Oc1c(C(=O)Nc2nnn[nH]2)oc2ccc(Cl)cc12)C1CCCC1` (stereo not drawn) [Example 39, 5-Chloro-3-(1-cyclopentyl-ethoxy)-benzofuran-2-carboxylic acid (1H-tetrazol-5-yl)-amide], for which the IC50 was determined as 2700 nM.

Consider `O=C(Nc1nnn[nH]1)c1oc2ccc(Cl)cc2c1OC1CCCCC1` [Example 42, 5-Chloro-3-cyclohexyloxy-benzofuran-2-carboxylic acid (1H-tetrazol-5-yl)-amide], for which the IC50 was 645 nM.

On to `COc1ccc2oc(C(=O)Nc3nnn[nH]3)c(OC3CCCCC3C)c2c1` (stereo not drawn) [Example 5, 5-Methoxy-3-(2-methyl-cyclohexyloxy)-benzofuran-2-carboxylic acid (1H-tetrazol-5-yl)-amide], for which the IC50 was 180 nM.

For `C=C(C)C1CCC(C)C(Oc2c(C(=O)Nc3nnn[nH]3)oc3ccc(OC)cc23)C1` (stereo not drawn) [Example 7, 3-(5-Isopropenyl-2-methyl-cyclohexyloxy)-5-methoxy-benzofuran-2-carboxylic acid (1H-tetrazol-5-yl)-amide], the IC50 is 700 nM.

As for `CC1CCC(Oc2c(C(=O)Nc3nnn[nH]3)oc3ccc(Cl)cc23)CC1C` (stereo not drawn) [Example 40, 5-Chloro-3-(3,4-dimethyl-cyclohexyloxy)-benzofuran-2-carboxylic acid (1H-tetrazol-5-yl)-amide], the IC50 turned out to be 1100 nM.

Take `O=C(Nc1nnn[nH]1)c1oc2ccc(Cl)cc2c1OCC1CCC1` [Example 35, 5-Chloro-3-cyclobutylmethoxy-benzofuran-2-carboxylic acid (1H-tetrazol-5-yl)-amide]: the IC50 is 3100 nM.

In the case of `O=C(Nc1nnn[nH]1)c1oc2ccc(Cl)cc2c1OCC1CC1` [Example 44, 5-Chloro-3-cyclopropylmethoxy-benzofuran-2-carboxylic acid (1H-tetrazol-5-yl)-amide], the IC50 is 9420 nM.

On to `COc1ccc2oc(C(=O)Nc3nnn[nH]3)c(OC3CCCC3C)c2c1` (stereo not drawn) [Example 8, 5-Methoxy-3-(2-methyl-cyclopentyloxy)-benzofuran-2-carboxylic acid (1H-tetrazol-5-yl)-amide], for which the IC50 was 305 nM.

On to `O=C(Nc1nnn[nH]1)c1oc2ccc(Cl)cc2c1OC1CCC1` [Example 37, 5-Chloro-3-cyclobutoxy-benzofuran-2-carboxylic acid (1H-tetrazol-5-yl)-amide], for which the IC50 amounted to 2020 nM.

Regarding `CC1CC(C)CC(Oc2c(C(=O)Nc3nnn[nH]3)oc3ccc(Cl)cc23)C1` (stereo not drawn) [Example 41, 5-Chloro-3-(3,5-dimethyl-cyclohexyloxy)-benzofuran-2-carboxylic acid (1H-tetrazol-5-yl)-amide], the concentration for half-maximal inhibition (IC50) was 480 nM.

As for “3-Cycloheptylmethoxy-5-methoxy-benzofuran-2-carboxylic acid (1H-tetrazol-5-yl)-amide [Example 29]”, the IC50 stood at 108 nM.

“5-Chloro-3(1-methyl-cyclopropoxymethoxy)-benzofuran-2-carboxylic acid (1H-tetrazol-5-yl)-amide [Example 34]”: the IC50 turned out to be 1460 nM.

On to “5-Methoxy-3-(1-methyl-cyclomethoxy)-benzofuran-2-carboxylic acid (1H-tetrazol-5-yl)-amide [Example 24]”, for which the IC50 came to 220 nM.

Regarding `COc1ccc2oc(C(=O)Nc3nnn[nH]3)c(OC3CC(C)CC(C)C3)c2c1` (stereo not drawn) [Example 17, 3-(3,5-Dimethyl-cyclohexyloxy)-5-methoxy-benzofuran-2-carboxylic acid (1H-tetrazol-5-yl)-amide], the IC50 amounted to 100 nM.

As for “3-Cycloheptyloxy-5-methoxy-benzofuran-2-carboxylic acid (1H-tetrazol-5-yl)-amide [Example 26]”, the IC50 turned out to be 97 nM.

For the compound “5-Methoxy-3-(6-methyl-cyclohex-3-enylmethoxy)-benzofuran-2-carboxylic acid (1H-tetrazol-5-yl)-amide [Example 16]”, the IC50 amounted to 185 nM.

On to `COc1ccc2oc(C(=O)Nc3nnn[nH]3)c(OC3CCCC(C)C3)c2c1` (stereo not drawn) [Example 14, 5-Methoxy-3-(3-methyl-cyclohexyloxy)-benzofuran-2-carboxylic acid (1H-tetrazol-5-yl)-amide], for which the IC50 came to 67 nM.

`COc1ccc2oc(C(=O)Nc3nnn[nH]3)c(OC3CCCCC3C)c2c1` (stereo not drawn) [Example 18, 5-Methoxy-3-(2-methyl-cyclohexyloxy)-benzofuran-2-carboxylic acid (1H-tetrazol-5-yl)-amide]: the IC50 stood at 130 nM.

With `O=C(Nc1nnn[nH]1)c1oc2ccc(Cl)cc2c1OCC1CCCC1` [Example 38, 5-Chloro-3cyclopentylmethoxy-benzofuran-2-carboxylic acid (1H-tetrazol-5-yl)-amide], the IC50 stood at 1040 nM.

In the case of `O=C(Nc1nnn[nH]1)c1oc2ccc(Cl)cc2c1OC1CCCCCC1` [Example 36, 5-Chloro-3-cycloheptyloxy-benzofuran-2-carboxylic acid (1H-tetrazol-5-yl)-amide], the IC50 worked out at 950 nM.
